Measured values taken from US7566787B2, “Small molecule cyclin D1 ablative agents” (The Ohio State University, priority 2004, dated 2009).
Read-outs that look alike come from different tables or passages of the source.

What was measured:
MCF-7 cells = experiment: MTT cell viability assay; type: cell-based; settings: Homo sapiens
Procedure: Cell viability analysis. The effect of individual test agents on cell viability was assessed by using the MTT [3-(4,5-dimethylthiazol-2-yl)-2,5-diphenyl-2H-tetrazolium bromide] assay in six replicates. Cells were seeded and incubated in 96-well, flat-bottomed plates in DMEM-F12 media with 10% FBS for 24 h, and were exposed to various concentrations of test agents dissolved in DMSO (final DMSO concentration, 0.1%) in 5% FBS-supplemented DMEM-F12 medium. Controls received DMSO vehicle at a concentration equal to that of drug-treated cells. The medium was removed, replaced by 200 μl of 0.5 mg/ml of MTT in 10% FBS-containing RPMI-1640 medium, and cells were incubated in the CO2 incubator at 37° C. for 2 h. Supernatants were removed from the wells, and the reduced MTT dye was solubilized in 200 μl/well DMSO. Absorbance at 570 nm was determined on a plate reader.

PPARγ = target: T1, PPARγ (Homo sapiens, UniProt P37231); experiment: Analysis of PPARγ activation (PPARγ transcription factor ELISA, MCF-7 nuclear extracts); type: cell-based; settings: 10 μM, 48 h, MCF-7 cells
T1 construct: endogenous in cells; host or cells: MCF-7 (nuclear extracts)
T1 sequence (P37231 1-505): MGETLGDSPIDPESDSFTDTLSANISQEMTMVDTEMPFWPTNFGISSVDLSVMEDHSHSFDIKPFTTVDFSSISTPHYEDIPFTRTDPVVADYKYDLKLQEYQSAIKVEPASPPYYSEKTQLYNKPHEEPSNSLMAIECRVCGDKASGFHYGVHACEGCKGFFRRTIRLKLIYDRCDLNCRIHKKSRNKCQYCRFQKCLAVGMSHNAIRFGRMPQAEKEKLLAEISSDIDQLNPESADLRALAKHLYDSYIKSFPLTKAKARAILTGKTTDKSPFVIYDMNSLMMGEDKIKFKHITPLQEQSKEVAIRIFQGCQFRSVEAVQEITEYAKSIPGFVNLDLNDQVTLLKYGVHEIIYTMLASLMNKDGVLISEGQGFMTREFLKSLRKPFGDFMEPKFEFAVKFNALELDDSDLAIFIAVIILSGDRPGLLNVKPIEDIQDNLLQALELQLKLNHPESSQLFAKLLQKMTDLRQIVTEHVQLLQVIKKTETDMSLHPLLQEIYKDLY
Procedure: Analysis of PPARγ activation. The analysis was carried out by using a PPARγ transcription factor ELISA kit (Active Motif, Carlsbad, Calif.), in which an oligonucleotide containing the peroxisome proliferator response element (PPRE) was immobilized onto a 96-well plate. PPARs contained in nuclear extracts bind specifically to this oligonucleotide and are detected through an antibody directed against PPARγ. In brief, MCF-7 cells were cultured in RPMI 1640 medium supplemented with 10% FBS, and treated with DMSO vehicle or individual test agents, 10 μM each, for 48 h. Cells were collected, and nuclear extracts were prepared with a Nuclear Extract kit (Active Motif, Carlsbad, Calif.). Nuclear extracts of the same protein concentration from individual treatments were subject to the PPARγ transcription factor ELISA according to the manufacturer's instruction.

cyclin D1 = experiment: Western blot analysis of cyclin D1 expression in MCF-7 cells; type: cell-based, human; settings: for concentration at which cyclin D1 levels are reduced: FIG. 8B; for minimum concentration required for the complete ablation of cyclin D1: 24 h, 5% FBS
Procedure: (§1) Western Blot Analysis. MCF-7 or MDA-MB-231 cells were seeded in 10% FBS-containing DMEM-F-12 for 24 h and treated with various agents as indicated. After individual treatments for 24 h, both the incubation medium and adherent cells in T-25 or T-75 flasks were scraped and collected by centrifugation at 2,000×g for 10 min. The pellets were recovered, placed on ice, and triturated with 20 to 50 μl of a chilled lysis buffer (M-PER® Mammalian Protein Extraction Reagent, Pierce, Rockford, Ill.) to which was added 1% protease inhibitor cocktail (set III, EMD Biosciences, Inc. San Diego, Calif.). After a 30 min-incubation on ice, the mixture was centrifuge at 16,100×g for 3 min. Two μl of the suspension was taken for protein analysis using the Bradford assay kit (Bio-Rad, Hercules, Calif.). To the remaining solution was added the same volume of 2× SDS-PAGE sample loading buffer (100 mM Tris-HCl, pH 6.8, 4% SDS, 5% β-mercaptoethanol 20% glycerol, and 0.1% bromophenol blue). The mixture was boiled for 10 min. Equal amounts of proteins were loaded onto 10% SDS-PAGE gels. After electrophoresis, protein bands were transferred to nitrocellulose membranes in a semi-dry transfer cell. The transblotted membrane was blocking with TBST [Tris-buffered saline (TBS) containing 0.1% Tween 20] containing 5% nonfat milk for 90 min, and the membrane was incubated with the appropriate primary antibody in TBST-5% nonfat milk at 4° C. overnight. After washing three times with TBST for a total of 45 min, the transblotted membrane was incubated with goat anti-rabbit or anti-mouse IgG-horseradish peroxidase conjugates (diluted 1:1000) for 1 h at room temperature and washed four times with TBST for a total of 1 h. The immunoblots were visualized by enhanced chemiluminescence.

ERα = experiment: Western blot analysis of ERα expression in MCF-7 cells; type: cell-based, human; settings: 24 h
Procedure: as §1, with “The transblotted membrane was blocking with TBST [Tris-buffered saline (TBS) containing 0.1% Tween 20] containing 5% nonfat milk for 90 min, and the membrane was incubated with the appropriate primary antibody in TBST-5% nonfat milk at 4° C. overnight. After washing three times with TBST for a total of 45 min, the transblotted membrane was incubated with goat anti-rabbit or anti-mouse IgG-horseradish peroxidase conjugates (diluted 1:1000) for 1 h at room temperature and washed four times with TBST for a total of 1 h. The immunoblots were visualized by enhanced chemiluminescence.” left out

ubiquitinated cyclin D1 = experiment: Coimmunoprecipitation/Western blot of cyclin D1 ubiquitination in MCF-7 cells; type: cell-based, human; settings: 30 μM TG or 20 μM Δ2-TG, 20 h
Procedure: Coimmunoprecipitation/Western Blot. MCF-7 cells were cultured in 10% FBS-containing DMEM-F-12 in 75-mm plates for 24 h. Cell were treated with DMSO vehicle, 30 μM TG, or 20 μM Δ2-TG in 5% FBS-containing DMEM-F12 medium for another 20 hours. Cells were rinsed with PBS at room temperature, scraped off the flask, transferred into centrifuge tubes, and centrifuged at 2,000×g for 10 min to pellet the cells. […] These cell lysates were treated with 100 μl of protein A-agarose bead slurry, followed by brief centrifugation, to remove nonspecific binding proteins. Equal amounts of proteins from these lysates, as determined by the Bradford assay, were mixed with anti-cyclin D1 in an orbital shaker at 23° C. for 2 h, followed by 100 μl of protein A-agarose bead slurry at 4° C. for 12 h. The immunocomplex was collected by brief centrifugation, washed 4 times with 800 μl of ice-cold RIPA buffer, and suspended in 50 μl of the aforementioned 2× SDS sample loading buffer. The suspension was boiled for 10 min, cooled, and briefly centrifuged to remove the beads. Western blot analysis was performed with anti-cyclin D1 or anti-ubiquitin as described above.

[1] = tested on: cyclins D2, D3, A, B, and E, and cyclin-dependent kinases (CDKs) 2 and 4; experiment: Western blot of other cyclins and CDKs in MCF-7 cells; type: cell-based, human; settings: different doses, 24 h
Procedure: as §1, with “The transblotted membrane was blocking with TBST [Tris-buffered saline (TBS) containing 0.1% Tween 20] containing 5% nonfat milk for 90 min, and the membrane was incubated with the appropriate primary antibody in TBST-5% nonfat milk at 4° C. overnight. After washing three times with TBST for a total of 45 min, the transblotted membrane was incubated with goat anti-rabbit or anti-mouse IgG-horseradish peroxidase conjugates (diluted 1:1000) for 1 h at room temperature and washed four times with TBST for a total of 1 h. The immunoblots were visualized by enhanced chemiluminescence.” left out

GSK-3β = experiment: Western blot of GSK-3β phosphorylation in MCF-7 cells; type: cell-based, human; settings: different doses
Procedure: as §1, with “The transblotted membrane was blocking with TBST [Tris-buffered saline (TBS) containing 0.1% Tween 20] containing 5% nonfat milk for 90 min, and the membrane was incubated with the appropriate primary antibody in TBST-5% nonfat milk at 4° C. overnight. After washing three times with TBST for a total of 45 min, the transblotted membrane was incubated with goat anti-rabbit or anti-mouse IgG-horseradish peroxidase conjugates (diluted 1:1000) for 1 h at room temperature and washed four times with TBST for a total of 1 h. The immunoblots were visualized by enhanced chemiluminescence.” left out

cyclin D1 gene mRNA = experiment: RT-PCR analysis of mRNA transcripts of cyclin D1 gene in MCF-7 cells; type: cell-based, human; settings: 24 h exposure, 40 μM TG, 30 μM Δ2-TG
Procedure: Reverse transcriptase (RT-) PCR analysis of mRNA transcripts of cyclin D1 gene. MCF7 cells were subject to total RNA isolation by using RNeasy mini kit (Qiagen, Valencia, Calif.). RNA concentrations and quality were assessed spectrophotometrically by measuring absorption at 260 nm. Aliquots of 20 μg of total RNA from each sample was reverse transcribed to cDNA using Omniscript RT Kit (Qiagen) according to manufacturer's instructions. The primers used were as follows: cyclin D1, forward, 5′-[…]-3′, reverse, 5′-[…]-3′; β-actin, forward, 5′-[…]-3′, reverse, 5′-[…]-3′. The reaction conditions were as follows: for cyclin D1 (a) initial denaturation at 95° C. for 5 min; (b) 34 cycles of amplification (95° C. for 1 min, 65° C. for 1 min 45 s, and 72° C. for 1 min); and (c) a final extension step of 10 min at 72° C.; for β-actin (a) initial denaturation at 95° C. for 3 min; (b) 40 cycles of amplification (95° C. for 30 s, 58° C. for 20 s, and 72° C. for 45 s); and (c) a final extension step of 10 min at 72° C.

[2] = MCF7, 24 h, 5% FBS, MTT, FIG. 8D, read-out: IC50 in inhibiting MCF-7 cell proliferation
[3] = MCF7, cell viability data, read-out: IC50 for MTT

C=CCOc1c(C)c(C)c2c(c1C)CCC(C)(COc1ccc(/C=C3\SC(=O)NC3=O)cc1)O2 (stereo not shown) [TG-6, 5-[4-(6-allyoxy-2,5,7,8-tetramethyl-chroman-2-yl-methoxy)-benzylidene]-2,4-thiazolidinedione]
IC50 (MCF-7 cells; [2]): 8 µM | IC50 (MCF-7 cells; [3]): 9 µM | PPARγ activation (PPARγ): devoid of activity | potency in ablating cyclin D1 relative to Δ2-TG (cyclin D1): an-order-of-magnitude higher | concentration at which cyclin D1 levels are reduced (cyclin D1): ≥ 2.5 µM | IC50 (cyclin D1; western blot data, read-out: IC50 for WB): 3 µM

CC1(COc2ccc(/C=C3\SC(=O)NC3=O)cc2)CCCCC1 [Δ2-CG, 5-[4-(1-methyl-cyclohexylmethoxy)-benzylidene]-thiazolidine-2,4-dione]
IC50 (MCF-7 cells; [3]): 70 µM | effect on ERα expression (ERα): able to reduce | PPARγ activation (PPARγ): inactive | minimum concentration required for the complete ablation of cyclin D1 (cyclin D1): 30 µM

Cc1c(C)c2c(c(C)c1O)CCC(C)(COc1ccc(/C=C3\SC(=O)NC3=O)cc1)O2 (stereo not shown) [Δ2-TG, 5-[4-(6-hydroxy-2,5,7,8-tetramethyl-chroman-2-yl-methoxy)-benzylidene]-2,4-thiazolidinedione]
extent of ubiquitination of cyclin D1 (ubiquitinated cyclin D1): increased | IC50 (MCF-7 cells; [2]): 55 µM | IC50 (MCF-7 cells; [3]): 57 µM | expression level of cyclin D2 and CDK4 [1]: slight decrease | expression level of the other cyclins and CDKs (D3, A, B, E, CDK2) [1]: no appreciable effect | effect on ERα expression (ERα): able to reduce | PPARγ activation (PPARγ): inactive | GSK-3β phosphorylation level (GSK-3β): remained unaltered | mRNA level of cyclin D1 (cyclin D1 gene mRNA): remained unaltered | time of complete ablation of cyclin D1 (cyclin D1; 40 μM TG, 30 μM Δ2-TG): 24 h | minimum concentration required for the complete ablation of cyclin D1 (cyclin D1): 30 µM | concentration at which cyclin D1 levels are reduced (cyclin D1): ≥ 20 µM
